This passage reports IC50 results from patent US11292796B2 (SIGNAL PHARMACEUTICALS, LLC, priority 2008, dated 2022).

The target of this experiment is T1, mTOR (Homo sapiens, UniProt P42345).
T1 construct: purchased Invitrogen PR8683A
T1 sequence (P42345 1360-2549 limits assumed): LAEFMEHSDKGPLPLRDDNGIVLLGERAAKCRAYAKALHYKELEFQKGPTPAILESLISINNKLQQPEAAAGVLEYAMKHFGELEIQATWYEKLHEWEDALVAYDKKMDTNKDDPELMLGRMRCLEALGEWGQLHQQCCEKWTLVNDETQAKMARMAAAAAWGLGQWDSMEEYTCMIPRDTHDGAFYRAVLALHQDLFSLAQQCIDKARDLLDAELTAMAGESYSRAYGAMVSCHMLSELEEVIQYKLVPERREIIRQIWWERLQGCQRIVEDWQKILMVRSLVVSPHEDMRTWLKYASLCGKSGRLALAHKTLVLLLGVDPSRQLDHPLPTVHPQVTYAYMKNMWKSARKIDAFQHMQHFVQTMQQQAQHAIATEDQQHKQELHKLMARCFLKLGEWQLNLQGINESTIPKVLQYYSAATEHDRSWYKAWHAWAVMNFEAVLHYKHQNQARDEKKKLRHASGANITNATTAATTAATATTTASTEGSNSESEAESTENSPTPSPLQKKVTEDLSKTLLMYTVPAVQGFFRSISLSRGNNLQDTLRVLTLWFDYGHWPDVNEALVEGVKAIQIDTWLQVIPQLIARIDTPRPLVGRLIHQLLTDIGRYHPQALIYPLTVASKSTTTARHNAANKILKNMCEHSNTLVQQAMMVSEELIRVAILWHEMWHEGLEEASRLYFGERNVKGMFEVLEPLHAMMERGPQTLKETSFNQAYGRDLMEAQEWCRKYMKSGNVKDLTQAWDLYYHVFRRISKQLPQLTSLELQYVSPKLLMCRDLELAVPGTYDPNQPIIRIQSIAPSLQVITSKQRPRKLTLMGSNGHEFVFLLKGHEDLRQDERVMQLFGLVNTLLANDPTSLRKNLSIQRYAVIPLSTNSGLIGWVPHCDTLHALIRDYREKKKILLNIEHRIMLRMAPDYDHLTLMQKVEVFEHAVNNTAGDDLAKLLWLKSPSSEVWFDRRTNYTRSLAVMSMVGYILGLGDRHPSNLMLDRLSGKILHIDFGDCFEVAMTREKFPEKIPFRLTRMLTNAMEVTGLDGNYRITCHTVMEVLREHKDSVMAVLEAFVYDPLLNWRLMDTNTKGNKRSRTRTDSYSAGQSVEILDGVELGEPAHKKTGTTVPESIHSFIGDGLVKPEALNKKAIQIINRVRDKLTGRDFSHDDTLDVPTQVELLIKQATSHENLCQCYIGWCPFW
In words: mTOR HTR-FRET assay. Format: biochemical. The settings on record: read-out: Act. Level (IC50 in mTor HTR-FRET assay). The protocol:
The following is an example of an assay that can be used to determine the mTOR inhibitory activity of a test compound. Heteroaryl Compounds were dissolved in DMSO and prepared as 10 mM stocks and diluted appropriately for the experiments. Reagents were prepared as follows:
“Simple TOR buffer” (used to dilute high glycerol TOR fraction): 10 mM Tris pH 7.4, 100 mM NaCl, 0.1% Tween-20, 1 mM DTT. Invitrogen mTOR (cat #PR8683A) was diluted in this buffer to an assay concentration of 0.200 μg/mL.
To 20 μL of the Simple mTor buffer is added 0.5 μL of test compound in DMSO. To initiate the reaction 5 μL of ATP/Substrate solution was added to 20 μL of the Simple TOR buffer solution (control) and to the compound solution prepared above.
For `Cc1cc(C(N)=O)ncc1-c1cnc2c(n1)N(C(C)C)C(=O)CN2` [Example 180, 5-(8-isopropyl-7-oxo-5,6,7,8-tetrahydropyrazino[2,3-b]pyrazin-2-yl)-4-methylpicolinamide], the IC50 was 0.005 to 250 nM.

As for `CCN1C(=O)CNc2ncc(-c3cnc4[nH]ccc4c3)nc21` [Example 193, 1-ethyl-7-(1H-pyrrolo[2,3-b]pyridin-5-yl)-3,4-dihydropyrazino[2,3-b]pyrazin-2(1H)-one], the IC50 was in the range of 250 to 500 nM.

Turning to `COCCCN1CC(=O)Nc2ncc(-c3ccc(C(C)(C)O)nc3)nc21` [Example 114, 6-(6-(2-hydroxypropan-2-yl)pyridin-3-yl)-4-(3-methoxypropyl)-3,4-dihydropyrazino[2,3-b]pyrazin-2(1H)-one], the IC50 lay in the range of 1000 to 10000 nM.

Consider `O=C1CNc2ncc(-c3cccnc3)nc2N1CCC1CCOCC1` [Example 187, 7-(pyridin-3-yl)-1-(2-(tetrahydro-2H-pyran-4-yl)ethyl)-3,4-dihydropyrazino[2,3-b]pyrazin-2(1H)-one], for which the IC50 was 500 to 1000 nM.

For `O=C1CNc2ncc(-c3cccc4[nH]cnc34)nc2N1CCC1CCOCC1` [Example 156, 7-(1H-benzo[d]imidazol-4-yl)-1-(2-(tetrahydro-2H-pyran-4-yl)ethyl)-3,4-dihydropyrazino[2,3-b]pyrazin-2(1H)-one], the IC50 lay in the range of 500 to 1000 nM.

On to `COCCN1c2nc(-c3ccc(-c4nnc[nH]4)cc3C)cnc2NC(=O)C1(C)C` [Example 71, 4-(2-methoxyethyl)-3,3-dimethyl-6-(2-methyl-4-(4H-1,2,4-triazol-3-yl)phenyl)-3,4-dihydropyrazino[2,3-b]pyrazin-2(1H)-one], for which the IC50 is 0.005 to 250 nM.

Take `O=C1CNc2ncc(-c3ccc(-c4nc[nH]n4)nc3)nc2N1[C@H]1CC[C@@H](O)CC1` [Example 160, 7-(6-(1H-1,2,4-triazol-3-yl)pyridin-3-yl)-1-(cis-4-hydroxycyclohexyl)-3,4-dihydropyrazino[2,3-b]pyrazin-2(1H)-one]: the IC50 fell in the range of 0.005 to 250 nM.

On to `Cc1cc(-c2nnc[nH]2)ccc1-c1cnc2c(n1)N(CC1CCOCC1)C1(CCCC1)C(=O)N2` [Example 61, 7′-(2-methyl-4-(4H-1,2,4-triazol-3-yl)phenyl)-1′-((tetrahydro-2H-pyran-4-yl)methyl)-1′H-spiro[cyclopentane-1,2′-pyrazino[2,3-b]pyrazin]-3′(4′H)-one], for which the IC50 lay in the range of 0.005 to 250 nM.

As to `CCN1CC(=O)Nc2ncc(-c3ccc(-c4nc[nH]n4)nc3)nc21` [Example 22, 6-(6-(1H-1,2,4-triazol-3-yl)pyridin-3-yl)-4-ethyl-3,4-dihydropyrazino[2,3-b]pyrazin-2(1H)-one], the IC50 was 0.005 to 250 nM.

As for `O=C1Nc2ncc(-c3ccc(-c4nnc[nH]4)cc3)nc2N2CCOCC12` (stereo not drawn) [Example 119, 9-(4-(4H-1,2,4-triazol-3-yl)phenyl)-6,11,4a-trihydromorpholino[4,3-e]pyrazino[2,3-b]pyrazin-5-one], the IC50 fell in the range of 0.005 to 250 nM.

As to `Nc1ncc(-c2cnc3c(n2)N(CCC2CCOCC2)C(=O)CN3)cn1` [Example 182, 7-(2-aminopyrimidin-5-yl)-1-(2-(tetrahydro-2H-pyran-4-yl)ethyl)-3,4-dihydropyrazino[2,3-b]pyrazin-2(1H)-one], the IC50 lay in the range of 250 to 500 nM.

On to `CO[C@H]1CC[C@@H](CN2C(=O)CNc3ncc(-c4cc(F)c(-c5nc[nH]n5)cc4C)nc32)CC1` [Example 153, 7-(5-fluoro-2-methyl-4-(1H-1,2,4-triazol-3-yl)phenyl)-1-((cis-4-methoxycyclohexyl)methyl)-3,4-dihydropyrazino[2,3-b]pyrazin-2(1H)-one], for which the IC50 lay in the range of 0.005 to 250 nM.

On to `CC(C)N1C(=O)CNc2ncc(-c3ccc(-c4nc[nH]n4)nc3)nc21` [Example 172, 7-(6-(1H-1,2,4-triazol-3-yl)pyridin-3-yl)-1-isopropyl-3,4-dihydropyrazino[2,3-b]pyrazin-2(1H)-one], for which the half-inhibitory concentration (IC50) lay in the range of 0.005 to 250 nM.

Regarding `CO[C@H]1CC[C@H](N2CC(=O)Nc3ncc(-c4ccc(C(C)(C)O)nc4C)nc32)CC1` [Example 82, 6-(6-(2-hydroxypropan-2-yl)-2-methylpyridin-3-yl)-4-(trans-4-methoxycyclohexyl)-3,4-dihydropyrazino[2,3-b]pyrazin-2(1H)-one], the IC50 is 250 to 500 nM.

As to `O=C1CN(CCC2CCOCC2)c2nc(-c3ccc4cn[nH]c4c3)cnc2N1` [Example 37, 6-(1H-indazol-6-yl)-4-(2-(tetrahydro-2H-pyran-4-yl)ethyl)-3,4-dihydropyrazino[2,3-b]pyrazin-2(1H)-one], the IC50 was 1000 to 10000 nM.

On to `Cc1nc(-c2nnc[nH]2)ccc1-c1cnc2c(n1)N(Cc1cccc(C#N)c1)C(=O)CN2` [Example 203, 3-((7-(2-methyl-6-(4H-1,2,4-triazol-3-yl)pyridin-3-yl)-2-oxo-3,4-dihydropyrazino[2,3-b]pyrazin-1(2H)-yl)methyl)benzonitrile], for which the half-inhibitory concentration (IC50) is 0.005 to 250 nM.

As for `CO[C@@H]1CC[C@H](N2CC(=O)Nc3ncc(-c4ccc(C(C)(C)O)nc4)nc32)C1` [Example 52, 6-(6-(2-hydroxypropan-2-yl)pyridin-3-yl)-4-((1S,3R)-3-methoxycyclopentyl)-3,4-dihydropyrazino[2,3-b]pyrazin-2(1H)-one], the IC50 fell in the range of 0.005 to 250 nM.

In the case of `Cc1cc(-c2nnc[nH]2)ccc1-c1cnc2c(n1)N1CCCCC1C(=O)N2` (stereo not drawn) [Example 120, 9-(4-(4H-1,2,4-triazol-3-yl)-2-methylphenyl)-6,11,4a-trihydropiperidino[1,2-e]pyrazino[2,3-b]pyrazin-5-one], the IC50 lay within 0.005 to 250 nM.

Regarding `Cc1cc(-c2nnc[nH]2)c(F)cc1-c1cnc2c(n1)N(CCC1CCOCC1)C(=O)CN2` [Example 247, 7-(5-fluoro-2-methyl-4-(4H-1,2,4-triazol-3-yl)phenyl)-1-(2-(tetrahydro-2H-pyran-4-yl)ethyl)-3,4-dihydropyrazino[2,3-b]pyrazin-2(1H)-one], the IC50 fell in the range of 0.005 to 250 nM.

As to `CO[C@H]1CC[C@@H](CN2C(=O)CNc3ncc(-c4ccc(-c5nc[nH]n5)nc4)nc32)CC1` [Example 155, 7-(6-(1H-1,2,4-triazol-3-yl)pyridin-3-yl)-1-((cis-4-methoxycyclohexyl)methyl)-3,4-dihydropyrazino[2,3-b]pyrazin-2(1H)-one], the IC50 fell in the range of 0.005 to 250 nM.

For the molecule `Cc1cc(-c2nnc[nH]2)ccc1-c1cnc2c(n1)N1CCCC1C(=O)N2` (stereo not drawn) [Example 140, 8-(4-(4H-1,2,4-triazol-3-yl)-2-methylphenyl)-5,10,3a-trihydropyrazino[2,3-b]pyrrolidino[1,2-e]pyrazin-4-one], the IC50 was in the range of 0.005 to 250 nM.

Turning to `Cc1cc(-c2nc[nH]n2)ncc1-c1cnc2c(n1)N(CCC1CCOCC1)C(=O)CN2` [Example 260, 7-(4-methyl-6-(1H-1,2,4-triazol-3-yl)pyridin-3-yl)-1-(2-(tetrahydro-2H-pyran-4-yl)ethyl)-3,4-dihydropyrazino[2,3-b]pyrazin-2(1H)-one], the IC50 lay in the range of 0.005 to 250 nM.

Regarding `Cc1cc(-c2nnc[nH]2)ncc1-c1cnc2c(n1)N(CC1CCOCC1)C(C)(C)C(=O)N2` [Example 50, 3,3-dimethyl-6-(4-methyl-6-(4H-1,2,4-triazol-3-yl)pyridin-3-yl)-4-((tetrahydro-2H-pyran-4-yl)methyl)-3,4-dihydropyrazino[2,3-b]pyrazin-2(1H)-one], the IC50 was in the range of 0.005 to 250 nM.

As for `Cc1nc(-c2nnc[nH]2)ccc1-c1cnc2c(n1)N(CCC1CCOCC1)C(C)(C)C(=O)N2` [Example 80, 3,3-dimethyl-6-(2-methyl-6-(4H-1,2,4-triazol-3-yl)pyridin-3-yl)-4-(2-(tetrahydro-2H-pyran-4-yl)ethyl)-3,4-dihydropyrazino[2,3-b]pyrazin-2(1H)-one], the half-inhibitory concentration (IC50) lay in the range of 0.005 to 250 nM.

As to `CNc1ccc(-c2cnc3c(n2)N(CCC2CCOCC2)C(=O)CN3)cn1` [Example 184, 7-(6-(methylamino)pyridin-3-yl)-1-(2-(tetrahydro-2H-pyran-4-yl)ethyl)-3,4-dihydropyrazino[2,3-b]pyrazin-2(1H)-one], the IC50 was 0.005 to 250 nM.

Turning to `CO[C@H]1CC[C@H](N2C(=O)CNc3ncc(-c4cc(F)c(-c5nc[nH]n5)cc4C)nc32)CC1` [Example 173, 7-(5-fluoro-2-methyl-4-(1H-1,2,4-triazol-3-yl)phenyl)-1-(trans-4-methoxycyclohexyl)-3,4-dihydropyrazino[2,3-b]pyrazin-2(1H)-one], the IC50 was in the range of 0.005 to 250 nM.

Turning to `Cc1c(-c2cnc3c(n2)N(CCC2CCOCC2)CC(=O)N3)ccc(-c2nnc[nH]2)c1F` [Example 48, 6-(3-fluoro-2-methyl-4-(4H-1,2,4-triazol-3-yl)phenyl)-4-(2-(tetrahydro-2H-pyran-4-yl)ethyl)-3,4-dihydropyrazino[2,3-b]pyrazin-2(1H)-one], the IC50 was in the range of 0.005 to 250 nM.

Turning to `CO[C@@H]1CC[C@@H](CN2CC(=O)Nc3ncc(-c4ccc(C(C)(C)O)nc4)nc32)C1` [Example 54, 6-(6-(2-hydroxypropan-2-yl)pyridin-3-yl)-4-(((1R,3R)-3-methoxycyclopentyl)methyl)-3,4-dihydropyrazino[2,3-b]pyrazin-2(1H)-one], the IC50 was in the range of 0.005 to 250 nM.

Regarding `CO[C@H]1CC[C@H](N2CC(=O)Nc3ncc(-c4cnc(C(N)=O)cc4C)nc32)CC1` [Example 35, 5-(S-(trans-4-methoxycyclohexyl)-6-oxo-5,6,7,8-tetrahydropyrazino[2,3-b]pyrazin-2-yl)-4-methylpicolinamide], the IC50 was 0.005 to 250 nM.

In the case of `COCCN1C(=O)CNc2ncc(-c3ccc(-c4cc[nH]n4)cc3)nc21` [Example 186, 7-(4-(1H-pyrazol-3-yl)phenyl)-1-(2-methoxyethyl)-3,4-dihydropyrazino[2,3-b]pyrazin-2(1H)-one], the IC50 is 0.005 to 250 nM.

A word on the IC50: it is the midpoint of a concentration-inhibition curve.
